Entries after “also recorded” stand apart in the source; their conditions may differ. Where two headings read alike, the source gives them in different places. Ends that are not written are not given here.
What was measured:
CLas BamA protein = CLas BamA protein (Candidatus Liberibacter asiaticus, UniProt Q32TE9); type: binding; conditions: for Kd: read-out: KD, affinity constant
[1] = biological target: CLas BamA protein (Candidatus Liberibacter asiaticus); assay: BLI (BLItz), […], global fit, triplicate
L. crescens [2] = type: binding, Liberibacter crescens
R. galegae [3] = assay: FITC-labeled peptide binding assay, fluorescence microscopy; set-up: species or system Rhizobium galegae
R. grahamii [4] = type: binding, Rhizobium grahamii
[5] = tested on: cells in healthy citrus tree extracts; type: binding
E. coli = assay: FITC-labeled peptide binding assay, fluorescence microscopy; set-up: species or system Escherichia coli
[6] = tested on: putative CLas cells in bacterial extracts from HLB-affected trees; type: binding, Candidatus Liberibacter asiaticus
CLas [7] = type: cell-based, Candidatus Liberibacter asiaticus; conditions: 72 hours; 25, 50, 100 μg/ml
CLas [8] = type: in vivo, Candidatus Liberibacter asiaticus; conditions: for Reduction in CLas titers compared to SOD2* or SOD12 alone: roots of 4 months old composite plants stably expressing the STAMP
L. crescens [9] = tested on: L. crescens
R. grahamii [10] = type: cell-based, Rhizobium grahamii; conditions: 10, 25, 50, 100 μg/ml
R. galegae [11] = type: cell-based, Rhizobium galegae; conditions: N- or C-terminus orientation
[12] = BLI, pH 6.5 Tris buffer, mean ± SD
[13] = binders 16 μM, unrelated bacterium
[14] = binders 16 μM, bacterial extracts from HLB-affected citrus trees
[15] = especially at lower dosages (50 μg/ml)

## NC(N)=NC(=O)CC(Nc1nc(N=C(N)N)nc(NC2CCC(NC(=O)Cn3nnc(-c4ccc(F)cc4)n3)CC2)n1)C1CC1 (centres unmarked) [MRL-494, reference compound]
CLas BamA protein; [12]
  Kd, rate of dissociation: 0.0813 ± 1 s⁻¹
  Kd: 6970 nM

## ACT56869.1_241-255 (peptide)
[1]
  Kd: 270 nM
  koff: 0.0117 s⁻¹
  kon: 49600 M⁻¹ s⁻¹

## ACT56973.1_80-96 (peptide)
[1]
  Kd: 248 nM
  koff: 0.211 s⁻¹
  kon: 852000 M⁻¹ s⁻¹

## ACT57020.1_94-118 (peptide)
[1]
  Kd: 209 nM
  koff: 0.0032 s⁻¹
  kon: 15900 M⁻¹ s⁻¹

## DLHPQFQNLLKKSQN [ACT56869.1_241-255]
CLas BamA protein; [12]
  Ka, rate of association: 49610 ± 1 M⁻¹ s⁻¹
  Kd, rate of dissociation: 0.01167 ± 1 s⁻¹
  Kd: 270 nM

## MGINGFKFLSDIHHFCS [compound 22602, MGINGFKFLSDIHHFCS]
L. crescens [2]
  Binding of FITC-labeled binder to L. crescens: consistent binding; also recorded: bound
R. galegae [3]
  Binding of FITC-labeled binder to R. galegae: consistent binding; also recorded: bound
R. grahamii [4]
  Binding of FITC-labeled binder to R. grahamii: consistent binding; also recorded: bound
[5]
  Binding of FITC-labeled binder to cells in healthy citrus tree extracts: not
E. coli
  Binding of FITC-labeled binder to E. coli: not to E. coli
[6]
  Binding of FITC-labeled binder to CLas cells: consistent binding; also recorded: bound

## QSFYYVSQKKKWFPVKF [ACT56973.1_80-96]
CLas BamA protein; [12]
  Ka, rate of association: 852433 ± 1 M⁻¹ s⁻¹
  Kd, rate of dissociation: 0.2111 ± 1 s⁻¹
  Kd: 248 nM

## RICESASYRFKGICVSRSNCANVCKNEGFPGGRCRGFRRRCLCYKHCG (cysteines drawn unpaired) [SOD12]
CLas [7]
  Anti-CLas activity (relative CLas titers by qPCR): ineffective or moderately effective
CLas [8]; in vivo
  CLas titers compared to empty vector controls: significantly lowered
L. crescens [9]
  Mortality of L. crescens at lower dosage: ineffective
  Mortality rate of L. crescens: 65-85%

## SRNSSIALGLRRAYAVFNYFVARGI [compound 57020]
L. crescens [2]
  Binding of FITC-labeled binder to L. crescens: consistent binding; also recorded: bound
R. galegae [3]
  Binding of FITC-labeled binder to R. galegae: consistent binding; also recorded: bound
R. grahamii [4]
  Binding of FITC-labeled binder to R. grahamii: consistent binding; also recorded: bound
CLas BamA protein; pH 6.5
  Ka, rate of association: 15857 ± 1 M⁻¹ s⁻¹
  Kd, rate of dissociation: 0.0032 ± 1 s⁻¹
  Kd: 209 nM
[5]
  Binding of FITC-labeled binder to cells in healthy citrus tree extracts: not
R. grahamii [10]
  In vitro growth inhibition of R. grahamii, efficacy compared to SOD12 alone: significantly greater efficacy
E. coli
  Binding of FITC-labeled binder to E. coli: not to E. coli
[6]
  Binding of FITC-labeled binder to CLas cells: consistent binding; also recorded: bound

## WHVTFY [#11]
L. crescens [2]; binders 16 μM
  Binding of FITC-labeled binder to L. crescens: bound
R. galegae [3]; binders 16 μM
  Binding of FITC-labeled binder to R. galegae: bound
R. grahamii [4]; binders 16 μM
  Binding of FITC-labeled binder to R. grahamii: bound
[5]; binders 16 μM
  Binding of FITC-labeled binder to cells in healthy citrus tree extracts: not
E. coli; [13]
  Binding of FITC-labeled binder to E. coli: not to E. coli
[6]; [14]
  Binding of FITC-labeled binder to CLas cells: bound

## WHVTYF [#12]
L. crescens [2]; binders 16 μM
  Binding of FITC-labeled binder to L. crescens: bound
R. galegae [3]; binders 16 μM
  Binding of FITC-labeled binder to R. galegae: bound
R. grahamii [4]; binders 16 μM
  Binding of FITC-labeled binder to R. grahamii: bound
[5]; binders 16 μM
  Binding of FITC-labeled binder to cells in healthy citrus tree extracts: not
E. coli; [13]
  Binding of FITC-labeled binder to E. coli: not to E. coli
[6]; [14]
  Binding of FITC-labeled binder to CLas cells: bound

B1: 22602-SOD12: STAMP, SEQ ID NO: 21; binder 22602, GGSGGS linker, SOD12 (peptide)
chain: MGINGFKFLSDIHHFCSGGSGGSRICESASYRFKGICVSRSNCANVCKNEGFPGGRCRGFRRRCLCYKHCG
CLas [8]
  Reduction in CLas titers compared to SOD2* or SOD12 alone: even greater reduction in CLas titers

B2: 57020-SoD2*: STAMP, SEQ ID NO: 27; binder 57020, GGSGGS linker, SOD2* (peptide)
chain: SRNSSIALGLRRAYAVFNYFVARGIGGSGGSGIFSSRKCKTPSKTFKGICTRDSNCDTSCRYEGYPAGDCKGIRRRCLCCTHT
CLas [8]
  Reduction in CLas titers compared to SOD2* or SOD12 alone: even greater reduction in CLas titers

B3: SOD12-22602: STAMP, SEQ ID NO: 22; SOD12, GGSGGS linker, binder 22602 (peptide)
chain: RICESASYRFKGICVSRSNCANVCKNEGFPGGRCRGFRRRCLCYKHCGGGSGGSMGINGFKFLSDIHHFCS
R. galegae [11]
  Efficacy in R. galegae compared with 22602-SOD12 and SOD12-57020 (binder orientation): lower efficacy

B4: 22602-SoD2*: STAMP, SEQ ID NO: 25; binder 22602, GGSGGS linker, SOD2* (peptide)
chain: MGINGFKFLSDIHHFCSGGSGGSGIFSSRKCKTPSKTFKGICTRDSNCDTSCRYEGYPAGDCKGIRRRCLCCTHT
CLas [8]
  Reduction in CLas titers compared to SOD2* or SOD12 alone: even greater reduction in CLas titers

B5: 57020-SOD12: STAMP, SEQ ID NO: 23; binder 57020, GGSGGS linker, SOD12 (peptide)
chain: SRNSSIALGLRRAYAVFNYFVARGIGGSGGSRICESASYRFKGICVSRSNCANVCKNEGFPGGRCRGFRRRCLCYKHCG
R. grahamii [10]; [15]
  In vitro growth inhibition of R. grahamii, efficacy compared to SOD12 alone: significantly greater efficacy
R. galegae [11]
  Efficacy in R. galegae compared with 22602-SOD12 and SOD12-57020 (binder orientation): lower efficacy

B6: SOD12-57020: STAMP, SEQ ID NO: 24; SOD12, GGSGGS linker, binder 57020 (peptide)
chain: RICESASYRFKGICVSRSNCANVCKNEGFPGGRCRGFRRRCLCYKHCGGGSGGSSRNSSIALGLRRAYAVFNYFVARGI
R. grahamii [10]; [15]
  In vitro growth inhibition of R. grahamii, efficacy compared to SOD12 alone: significantly greater efficacy
